Measurements as given in US8012959B2, “Diaminopyrimidinecarboxamide derivative” (Astellas Pharma Inc., priority 2002, dated 2011).

Tests used:
T cells = assay: Th2 differentiation (IL-4 production by differentiated mouse spleen T cells, ELISA); type: cell-based; conditions: inhibition of Th2 differentiation (IL-4 production, ELISA), C57BL/6 mouse spleen T cells
Protocol: Measurement of Th2 Differentiation
T cells were prepared by removing nylon wool (Wako Pure Chemical Industries)-adhering cells from C57BL/6 mouse (Charles River Japan) spleen cells. Using a 96 well plate to which an anti-CD3ε antibody (10 μg/ml) (Sederlane) had been immobilized in advance, T cells (2×10^5 cells/0.2 ml) were inoculated under stimulation with anti-CD28 antibody (1 μg/ml) (Pharmingen), IL-2 (10 ng/ml) (Peprotech) and IL-4 (10 ng/ml) (Peprotech). After 2 days of the culturing, total volume of the cell suspension was diluted to 2 ml with a medium containing IL-2 (10 ng/ml) and IL-4 (10 ng/ml). The differentiation was induced by further carrying out the culturing for 3 days. By counting the cell density, the cells after differentiation were adjusted to 1×10^6 cells/ml and inoculated into a 96 well plate immobilized with the anti-CD3 ε antibody, in order to induce IL-4 production. The supernatant after 24 hours of the stimulation was recovered, and the IL-4 production was determined by an ELISA method. The antibody used in the ELISA was purchased from Pharmingen. Also, an HRPO-labeled streptoavidin (Amersham Pharmacia) was used in the detection of biotinylated antibody, and a peroxidase color developing reagent (Sumitomo Bakelite) was used in the HRPO color development. In the case of the evaluation of compounds, compound dilutions were added to the wells before the addition of T cells, at the time of the dilution 2 days later, compounds equivalent to the initial concentration were added. Also, regarding the dilution of compounds, dilution was carried out using 10% FBS-containing RPMI 1640 such that the final concentration of DMSO in which each compound was dissolved became 0.1% or less. Inhibitory activity of each tested compound was evaluated in which the IL-4 production when DMSO was added instead of the compound was regarded as 100%, and the IL-4 production when anti-CD28 antibody and IL-4 were not added as 0%.

STAT 6 = target: T1, STAT 6 (Mus musculus, UniProt P52633); assay: STAT 6-dependent reporter activity (IL-4-stimulated CI/FW4 luciferase reporter cell); type: cell-based, human
T1 construct: An STAT 6 reporter cell CI/FW4 was constructed by the above operation; endogenous in cells; host or cells: CI/FW4 (FW4 cell stably carrying the pGL2-CI/bs luciferase reporter)
T1 sequence (P52633 1-837): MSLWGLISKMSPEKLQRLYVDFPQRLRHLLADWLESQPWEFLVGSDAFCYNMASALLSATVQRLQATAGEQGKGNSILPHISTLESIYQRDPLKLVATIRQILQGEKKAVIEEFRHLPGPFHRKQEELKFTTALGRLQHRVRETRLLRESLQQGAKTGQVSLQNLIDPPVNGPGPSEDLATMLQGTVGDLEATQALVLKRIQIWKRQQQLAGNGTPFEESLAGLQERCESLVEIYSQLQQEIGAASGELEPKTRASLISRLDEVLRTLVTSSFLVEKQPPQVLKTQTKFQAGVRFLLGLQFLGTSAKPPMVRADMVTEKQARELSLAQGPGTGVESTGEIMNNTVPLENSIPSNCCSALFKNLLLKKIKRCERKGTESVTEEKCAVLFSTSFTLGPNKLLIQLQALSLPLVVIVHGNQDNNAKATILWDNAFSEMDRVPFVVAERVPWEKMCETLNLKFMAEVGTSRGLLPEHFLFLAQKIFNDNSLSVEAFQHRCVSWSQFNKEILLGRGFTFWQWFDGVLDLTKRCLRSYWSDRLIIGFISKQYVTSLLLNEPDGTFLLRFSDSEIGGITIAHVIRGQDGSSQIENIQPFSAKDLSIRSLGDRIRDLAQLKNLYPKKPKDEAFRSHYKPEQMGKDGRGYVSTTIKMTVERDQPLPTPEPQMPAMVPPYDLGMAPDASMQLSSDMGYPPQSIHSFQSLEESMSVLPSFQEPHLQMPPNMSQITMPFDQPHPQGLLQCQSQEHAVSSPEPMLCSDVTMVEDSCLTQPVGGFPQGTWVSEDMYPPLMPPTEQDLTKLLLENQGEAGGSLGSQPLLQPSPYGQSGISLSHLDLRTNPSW
Protocol: Measurement of STAT 6-Dependent Reporter Activity 1) Construction of STAT 6 Reactive Reporter Plasmid A STAT 6 reporter plasmid pGL2-CI was prepared by the following method. […] Also, […] sequence DNA molecules (SEQ ID NOs:3 and 4) contained in the adenovirus major late promoter were annealed and inserted into BglII and HindIII sites of the same vector. Thereafter, pGL2-CI/bs was constructed by inserting the blasticidin resistance gene of pUCSV-BD (Funakoshi) into BamHI site of the constructed pGL2-CI. 2) Construction of STAT 6 Reporter Cell Gene transfer of […] into a human IL-4 reactive cell FW4 cell (Mol. Cell. Biol., 14: 5433-5440) was carried out by the electroporation method (320 V, 960 μF/0.4 cm cuvette (Nippon Bio-Rad Laboratories)), and 6 μg/ml of blasticidin (Funakoshi) was added 40 hours thereafter to select a resistant cell. Confirmation of constant transfer of the reporter plasmid was carried out by detecting luciferase induce by IL-4 stimulation. An STAT 6 reporter cell CI/FW4 was constructed by the above operation. 3) STAT Reporter Assay Using CI/FW4 Cell Stimulation of the CI/FW4 cell (1×10^4 cells/0.1 ml) with 10 ng/ml of human IL-4 (Genzyme Techne) was carried out using a white 96 well plate (Nunc). In the case of the evaluation of compounds, compound dilutions were added to the wells before inoculating the cells into the 96 well plate. […] Thereafter, 50 μl of a luciferase substrate solution (10 mM Tris-HCl pH 7.8, 5 mM luciferin, 2 mM coenzyme A, 2 mM ATP, 0.5 mM MgCl2 and 2 mM Mg(OH)2) was added, followed by stirring for 1 minute. Then, the luciferase activity was measured using ML3000 luminometer (Dynatech Laboratories, Inc). Inhibitory activities of tested compounds were evaluated in which the luminescence intensity (relative light unit: […] The results are shown in the following Table 26.

SMILES	Inh (%) (T cells)	inhibition at 0.1 µM (STAT 6; inhibition ratio at 0.1 μM compound, IL-4-stimulated CI/FW4 cell, luciferase) [%]	inhibition at 1 µM (STAT 6; inhibition ratio at 1 μM compound, IL-4-stimulated CI/FW4 cell, luciferase) [%]	inhibition of STAT 6-dependent reporter activity (activity similar to the compounds of Table 26) (STAT 6; CI/FW4 cell, 10 ng/ml human IL-4, luciferase)
Cc1cccc(Nc2nc(N[C@@H]3CCCC[C@@H]3N)ncc2C(N)=O)c1 (relative stereo) [ref 2, 2-(cis-2-aminocyclohexylamino)-4-(3-methylanilino)pyrimidine-5-carboxamide, reference compound]	0	–	–	–
NC(=O)c1cnc(NCCc2ccc(O)c(Cl)c2)nc1NCc1ccccc1 [Example 1, 4-benzylamino-2-{[2-(3-chloro-4-hydroxyphenyl)ethyl]amino}pyrimidine-5-carboxamide]	88	89	100	–
NC(=O)c1cnc(NCCc2cc(Cl)c(O)c(Cl)c2)nc1NCc1ccccc1 [Example 16]	82	–	–	good activity
Cc1cccc(Nc2nc(NCCN)ncc2C(N)=O)c1 [ref 1, 2-(2-aminoethylamino)-4-(3-methylanilino)pyrimidine-5-carboxamide, reference compound]	0	–	–	–
